Reference: patent US8192962B2, “Processes for detecting toxic substances” (Daikin Industries, Ltd., priority 2001, dated 2012)

System: Genes belonging to other category
Assay: DNA chip mRNA expression in yeast, genes belonging to other category (Table 9)
Type: cell-based, Saccharomyces cerevisiae S288C
Method: Yeast (Saccharomyces cerevisiae S288C (α SUC2mal mel gap2 CUP1)) were incubated at 25° C. on YPD medium (yeast extract 1%, polypepton 2%, glucose 2%). One of toxic chemical substances was added to the cells at logarithmic growth phase, and the cells were further incubated for two hours. Cells were cultured without any chemical substance in the same condition, and were used as control. Concentrations of the chemical substances were defined to inhibit the growth of the yeast but not lead to death.
After completion of the incubation, the culture was centrifuged to collect the cells. To the cells, sodium acetate buffer (50 mM sodium acetate, 10 mM EDTA, 1% SDS) was added, and the mixture was shaken at 65° C. for five minutes, followed by returning to room temperature, and obtaining the supernatant, of which the procedures were repeated two times. To the supernatant, ½ amount of a solution of phenol/chloroform was added, and the mixture was centrifuged to give a supernatant, which was added with an equal amount of chloroform, and the mixture was centrifuged to give a supernatant. To the supernatant, an equal amount of isopropanol containing 0.3 M sodium acetate was added, and the mixture was allowed to stand at room temperature for 30 minutes, after which the mixture was centrifuged to give a sediment of the whole RNAs. Seventy % ethanol was added to the sediment, and the mixture was again centrifuged to give a sediment, which was then dried and dissolved in water. mRNA was isolated from the whole RNAs as followings. In view of the fact that a poly A chain is attached to the 3′ terminus of mRNA, a polynucleotide having a poly T structure which was immobilized on the surface of latex beads was used to trap the mRNA, and then the mRNA was washed and eluted with spine column (Oligotex-dT30<Super>mRNA Purification Kit, Takara). Reverse transcription of the mRNA was conducted with a reverse transcriptase (Super Script II Reverse Transcriptase; catalogue No. 18064-014, GibcoBRL) using fluorescence-labeled nucleotides to give cDNAs that were introduced with Cy3-dUTP or Cy5-dUTP during the reverse transcription.
The labeled cDNAs were dissolved in TE buffer (10mM Tris-HCl/1 mM EDTA, pH8.0), and the solution was dropped on the DNA chip containing the whole genes of yeast (DNA Chip Research Inc. Japan) so that the cDNAs were hybridized on the DNA chip at 65° C. for over 12 hours. The fluoresces intensity of the DNA chip was read with a scanner, and the ratio relative to the fluorescence intensity resulting from the absence of chemical substance was estimated as the following, which is shown in Tables 1 to 9: […]

N#Cc1c(Cl)c(Cl)c(Cl)c(C#N)c1Cl [(9), 2,4,5,6-tetrachloro-1,3-benzenedicarbonitrile]
The level of expressed mRNA in the presence of chemical substance/The level of expressed mRNA in the absence of chemical substance (yeast gene YMR297W): 1.9 | The level of expressed mRNA in the presence of chemical substance/The level of expressed mRNA in the absence of chemical substance (yeast gene YMR314W): 5.9 | The level of expressed mRNA in the presence of chemical substance/The level of expressed mRNA in the absence of chemical substance (yeast gene YNL006W): 4.0 | The level of expressed mRNA in the presence of chemical substance/The level of expressed mRNA in the absence of chemical substance (yeast gene YNL007C): 3.0 | The level of expressed mRNA in the presence of chemical substance/The level of expressed mRNA in the absence of chemical substance (yeast gene YNL036W): 6.6 | The level of expressed mRNA in the presence of chemical substance/The level of expressed mRNA in the absence of chemical substance (yeast gene YNL039W): 2.1 | The level of expressed mRNA in the presence of chemical substance/The level of expressed mRNA in the absence of chemical substance (yeast gene YNL093W): 1.7 | The level of expressed mRNA in the presence of chemical substance/The level of expressed mRNA in the absence of chemical substance (yeast gene YNL147W): 2.1 | The level of expressed mRNA in the presence of chemical substance/The level of expressed mRNA in the absence of chemical substance (yeast gene YNL214W): 1.5 | The level of expressed mRNA in the presence of chemical substance/The level of expressed mRNA in the absence of chemical substance (yeast gene YNL333W): 2.3 | The level of expressed mRNA in the presence of chemical substance/The level of expressed mRNA in the absence of chemical substance (yeast gene YNR010W): 1.7 | The level of expressed mRNA in the presence of chemical substance/The level of expressed mRNA in the absence of chemical substance (yeast gene YNR037C): 1.3 | The level of expressed mRNA in the presence of chemical substance/The level of expressed mRNA in the absence of chemical substance (yeast gene YNR069C): 5.5 | The level of expressed mRNA in the presence of chemical substance/The level of expressed mRNA in the absence of chemical substance (yeast gene YOL013C): 0.8 | The level of expressed mRNA in the presence of chemical substance/The level of expressed mRNA in the absence of chemical substance (yeast gene YOL164W): 4.9 | The level of expressed mRNA in the presence of chemical substance/The level of expressed mRNA in the absence of chemical substance (yeast gene YOR036W): 1.2 | The level of expressed mRNA in the presence of chemical substance/The level of expressed mRNA in the absence of chemical substance (yeast gene YOR058C): 6.4 | The level of expressed mRNA in the presence of chemical substance/The level of expressed mRNA in the absence of chemical substance (yeast gene YOR069W): 1.9 | The level of expressed mRNA in the presence of chemical substance/The level of expressed mRNA in the absence of chemical substance (yeast gene YOR117W): 3.5 | The level of expressed mRNA in the presence of chemical substance/The level of expressed mRNA in the absence of chemical substance (yeast gene YOR124C): 2.0 | The level of expressed mRNA in the presence of chemical substance/The level of expressed mRNA in the absence of chemical substance (yeast gene YOR132W): 2.8 | The level of expressed mRNA in the presence of chemical substance/The level of expressed mRNA in the absence of chemical substance (yeast gene YOR134W): 1.5 | The level of expressed mRNA in the presence of chemical substance/The level of expressed mRNA in the absence of chemical substance (yeast gene YOR149C): 0.4 | The level of expressed mRNA in the presence of chemical substance/The level of expressed mRNA in the absence of chemical substance (yeast gene YOR157C): 5.7 | The level of expressed mRNA in the presence of chemical substance/The level of expressed mRNA in the absence of chemical substance (yeast gene YOR165W): 0.8 | The level of expressed mRNA in the presence of chemical substance/The level of expressed mRNA in the absence of chemical substance (yeast gene YOR181W): 0.6 | The level of expressed mRNA in the presence of chemical substance/The level of expressed mRNA in the absence of chemical substance (yeast gene YOR185C): 1.9 | The level of expressed mRNA in the presence of chemical substance/The level of expressed mRNA in the absence of chemical substance (yeast gene YOR198C): 2.4 | The level of expressed mRNA in the presence of chemical substance/The level of expressed mRNA in the absence of chemical substance (yeast gene YOR256C): 2.7 | The level of expressed mRNA in the presence of chemical substance/The level of expressed mRNA in the absence of chemical substance (yeast gene YOR259C): 2.7 | The level of expressed mRNA in the presence of chemical substance/The level of expressed mRNA in the absence of chemical substance (yeast gene YOR261C): 5.5 | The level of expressed mRNA in the presence of chemical substance/The level of expressed mRNA in the absence of chemical substance (yeast gene YOR285W): 4.0 | The level of expressed mRNA in the presence of chemical substance/The level of expressed mRNA in the absence of chemical substance (yeast gene YOR288C): 0.9 | The level of expressed mRNA in the presence of chemical substance/The level of expressed mRNA in the absence of chemical substance (yeast gene YOR327C): 1.4 | The level of expressed mRNA in the presence of chemical substance/The level of expressed mRNA in the absence of chemical substance (yeast gene YOR355W): 0.1 | The level of expressed mRNA in the presence of chemical substance/The level of expressed mRNA in the absence of chemical substance (yeast gene YOR362C): 4.3 | The level of expressed mRNA in the presence of chemical substance/The level of expressed mRNA in the absence of chemical substance (yeast gene YOR383C): 1.2 | The level of expressed mRNA in the presence of chemical substance/The level of expressed mRNA in the absence of chemical substance (yeast gene YPL001W): 0.7 | The level of expressed mRNA in the presence of chemical substance/The level of expressed mRNA in the absence of chemical substance (yeast gene YPL018W): 1.4 | The level of expressed mRNA in the presence of chemical substance/The level of expressed mRNA in the absence of chemical substance (yeast gene YPL020C): 2.3 | The level of expressed mRNA in the presence of chemical substance/The level of expressed mRNA in the absence of chemical substance (yeast gene YPL089C): 0.4 | The level of expressed mRNA in the presence of chemical substance/The level of expressed mRNA in the absence of chemical substance (yeast gene YPL109C): 1.2 | The level of expressed mRNA in the presence of chemical substance/The level of expressed mRNA in the absence of chemical substance (yeast gene YPL149W): 5.6 | The level of expressed mRNA in the presence of chemical substance/The level of expressed mRNA in the absence of chemical substance (yeast gene YPL154C): 2.8 | The level of expressed mRNA in the presence of chemical substance/The level of expressed mRNA in the absence of chemical substance (yeast gene YPR066W): 2.3 | The level of expressed mRNA in the presence of chemical substance/The level of expressed mRNA in the absence of chemical substance (yeast gene YPR081C): 4.2 | The level of expressed mRNA in the presence of chemical substance/The level of expressed mRNA in the absence of chemical substance (yeast gene YPR086W): 3.0 | The level of expressed mRNA in the presence of chemical substance/The level of expressed mRNA in the absence of chemical substance (yeast gene YPR103W): 5.5 | The level of expressed mRNA in the presence of chemical substance/The level of expressed mRNA in the absence of chemical substance (yeast gene YPR107C): 2.4 | The level of expressed mRNA in the presence of chemical substance/The level of expressed mRNA in the absence of chemical substance (yeast gene YPR108W): 3.7
